Marks after values point to notes of the source that are not given here.
Test system: New Zealand Albino rabbits
Test: Intraocular pressure by applanation pneumatonometry after topical application to one eye
Type: in vivo
Settings: 0.1% (w/v) solution, 25 µl to the surface of one eye
Description: Prostaglandin F2α TRIS salt was dissolved in either distilled water or in a 5% aqueous hydroxypropyl-β-cyclodextrin solution, to provide 0.1% (w/v) solutions. Two groups of experimental New Zealand Albino rabbits, containing 6 and 8 rabbits, respectively, were treated by administering 25µℓ of each solution to the surface of one eye. The contralateral eye received vehicle as a control. Intraocular pressure (IOP) was measured by applanation pneumatonometry model (Model 3ORT, manufactured by Digilab) at the time of administration, and at intervals of 1, 2, 3, 4, and 6 hours thereafter.

Prostaglandin F2α TRIS salt [Prostaglandin F2α (in aqueous)]
CHANGES IN INTRAOCULAR PRESSURE (mmHg) AT PREDETERMINED TIMES (HR) (1.0 HR after administration): -6.3* mmHg
CHANGES IN INTRAOCULAR PRESSURE (mmHg) AT PREDETERMINED TIMES (HR) (2.0 HR after administration): -3.0 mmHg
CHANGES IN INTRAOCULAR PRESSURE (mmHg) AT PREDETERMINED TIMES (HR) (3.0 HR after administration): -3.0 mmHg
CHANGES IN INTRAOCULAR PRESSURE (mmHg) AT PREDETERMINED TIMES (HR) (4.0 HR after administration): -1.5 mmHg
CHANGES IN INTRAOCULAR PRESSURE (mmHg) AT PREDETERMINED TIMES (HR) (6.0 HR after administration): 0 mmHg

— patent EP0435682A2, “The use of inclusion complexes of prostaglandins with cyclodextrins in the treatment of ocular hypertension” (ALLERGAN, INC., priority 1989, dated 1991)
